T1: IRGB10 (Mus musculus, UniProt U5NFV2)
T1 construct: recombinant from E. coli BL21(DE3), Ni-NTA purified, C-terminal LEH from plasmid kept; modelled residues 16-406
T1 sequence (U5NFV2 1-406): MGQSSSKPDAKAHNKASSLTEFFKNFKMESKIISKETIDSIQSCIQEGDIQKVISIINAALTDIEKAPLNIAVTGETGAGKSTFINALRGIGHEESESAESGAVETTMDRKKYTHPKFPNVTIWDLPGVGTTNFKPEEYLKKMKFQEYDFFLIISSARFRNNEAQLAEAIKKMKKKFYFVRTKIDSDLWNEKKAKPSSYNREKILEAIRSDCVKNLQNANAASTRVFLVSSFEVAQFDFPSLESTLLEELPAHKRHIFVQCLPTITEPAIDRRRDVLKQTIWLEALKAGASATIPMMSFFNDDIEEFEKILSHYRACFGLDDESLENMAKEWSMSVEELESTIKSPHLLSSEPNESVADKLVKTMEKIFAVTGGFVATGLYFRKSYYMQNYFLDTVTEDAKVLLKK


Legend:
[1] = target: T1, IRGB10; assay: turbidity at […] nm, SEC and native PAGE of GTP-driven oligomerization; format: biochemical; conditions: nucleotide-free protein, MgCl2, 37 °C, pH 8.0; hydrolysis inferred from oligomerization
[2] = target: the molecule itself; assay: SEC-MALS; GDP-bound protein (endogenous E. coli GDP kept); Superdex 200 HR 10/30, 20 mM Tris-HCl pH 8.0, 150 mM NaCl

Molecule	turbidity at 350 nm, SEC and native PAGE of GTP-driven oligomerization [1]	stoichiometry N [2]
Nc1nc2c(ncn2[C@@H]2O[C@H](COP(=O)(O)OP(=O)(O)OP(=O)(O)O)[C@@H](O)[C@H]2O)c(=O)[nH]1 [GTP]	The results of these turbidity assays indicated that GTP hydrolysis caused the oligomerization of IRGB10.	–
Immunity-related GTPase B10 (IRGB10) (enzyme, mouse, IRGB10, immunity-related GTPase B10, member of the mouse IRG (p47 GTPase) family; the crystal model runs from residue 16 to residue 406 and is followed by LEH from the plasmid; nucleotide-free after a 1.5 M NaCl wash on the resin; GppNHp, GTP or GDP added afterwards; also called wildtype IRGB10; nucleotide-free IRGB10; source: E. coli BL21 (DE3), purified (Ni-NTA, SEC)) MGQSSSKPDAKAHNMASSLTEFFKNFKMESKIISKETIDSIQSCIQEGDIQKVISIINAALTDIEKAPLNIAVTGETGAGKSTFINALRGIGHEESESAESGAVETTKDRKKYTHPKFPNVTIWDLPGVGTTNFKPEEYLKKMKFQEYDFFLIISSARFRDNEAQLAEAIKKMKKKFYFVRTKIDSDLWNEKKAKPSSYNREKILEVIRSDCVKNLQNANAASTRVFLVSSFEVAQFDFPSLESTLLEELPAHKRHIFVQCLPTITEPAIDRRRDVLKQTIWLEALKAGASATIPMMSFFNDDIEEFEKILSHYRACFGLDDESLENMAKEWSMSVEELESTIKSPHLLSSEPNESVADKLVKTMEKIFAVTGGFVATGLYFRKSYYMQNYFLDTVTEDAKVLLKK	–	2

Source: publication PMC10495984, “Structural basis of IRGB10 oligomerization by GTP hydrolysis” (Frontiers in Immunology, 2023)
